Measurements taken from patent US20180162871A1, “FLUORESCENT PROBE FOR DETECTING CALPAIN ACTIVITY” (The University of Tokyo, priority 2015, published 2018).
Non-standard residues stand in square brackets, D forms with d. Residues, ends and D or L forms follow the SMILES beside them. Nle = CCCC[C@H](N)C(=O)O

Columns and labels:
[1] = test system: calpain activity in HeLa cells; test: Live cell imaging of calpain activity in HeLa cells; format: cell-based; conditions: for visualization of calpain activity in HeLa cells (fluorescence image): 30 minutes with 10 KM of probe, confocal microscope
Description: The calpain activity in HeLa cells was visualized by the following procedure using Ac-LLY-HMRG.
(a) HeLa cells were incubated for one hour at 37° C. using FBS (BD Pharmingen stain buffer)-free DMEM (Dulbecco's modified Eagle's medium), and also incubated for 30 minutes by 10 KM of Ac-LLY-HMRG. Fluorescence images and transmission images were taken thereafter using a confocal microscope.
The calpain activity in HeLa cells was visualized by the following procedure using Ac-LM-HMRG.
(a) HeLa cells were incubated for one hour at 37° C. using FBS (BD Pharmingen stain buffer)-free DMEM (Dulbecco's modified Eagle's medium), (b) 1 KM ALLN (calpain selective inhibitor)-containing DMEM (FBS (−)), (c) 2 KM ALLN-containing DMEM (FBS (−)), and (d) 5 KM ALLN-containing DMEM (FBS (−)), and also incubated for 30 minutes by 10 KM of Ac-LM-HMRG. Fluorescence images and transmission images were taken thereafter using a confocal microscope. The results are shown in FIGS. 4a-4d (the left side of each drawing is the fluorescence image; the right side is the transmission image). The scale bar in the drawing is 50 μm.

[2] = Measurement of the optical properties; format: physicochemical; conditions: 0.2 M sodium phosphate buffer of pH 2
Description: The optochemical properties of Ac-LLY-HMRG and Ac-LM-HMRG were measured in 0.2 M sodium phosphate buffer of pH 2.

[3] = test system: calpain-2 from porcine kidney; test: In vitro enzyme assay using calpain (calpain 2); format: biochemical; conditions: probe 1 μM, 50 mM Tris buffer pH 7.4, 500 μM CaCl2, 25° C., excitation 495 nm, fluorescence 524 nm
Description: (§1) A calpain enzyme addition assay was conducted in Tris buffer under the following conditions using a probe synthesized and designed by the above method. As a result, the absorption and fluorescence intensity of Ac-LLY-HMRG increased about two-fold due to the enzymatic reaction, and it was confirmed to function as a calpain probe. The results are shown in FIG. 1a (using calpain 1) and FIG. 1b (using calpain 2).
(§2) A quantity of 3 μL of a DMSO solution (1 mM) of the probe was dissolved in 3 mL of 50 mM Tris buffer (pH 7.4) (containing 5 μM of CaCl2 for calpain 1 and 500 μM of CaCl2 for calpain 2) (final probe concentration: 1 μM). […] The excitation wavelength was 495 nm, and the fluorescence wavelength was 524 nm. […]
(§3) A calpain enzyme addition assay was conducted in Tris buffer using a probe synthesized and designed by the above method. As a result, the absorption and fluorescence intensity of Ac-LM-HMRG increased about four-fold due to the enzymatic reaction with calpain 2, and it was confirmed to function as a calpain probe. […]
(§4) A quantity of 3 μL of a DMSO solution (1 mM) of the probe was dissolved in 3 mL of 50 mM Tris buffer (pH 7.4) (containing 5 μM of CaCl2 for calpain 1 and 500 μM of CaCl2 for calpain 2) (final probe concentration: 1 μM). […] The excitation wavelength was 495 nm, and the fluorescence wavelength was 524 nm.

[4] = test system: mouse NMDA injury model; test: Flat-mounted retinas with mouse NMDA injury model; format: in vivo, BL6/J mice; conditions: Ac-LM-HMRG 0.5 mM, 1 μL to the eye
Description: A study by mouse NMDA injury model was conducted with flat-mounted retinas. […] After one week, the mice were anesthetized by Nembutal, and 1 μL of 30 mM NMDA (PBS solution) or 1 μL of PBS was administered to the vitreous body in the eye. Two weeks later, the mice were again anesthetized by ketamine-xylazine, and Ac-LM-HMRG (0.5 mM, 1 μL, PBS solution) was administered to the eye. One hour after Ac-LM-HMRG administration, Sytox (registered trademark) Orange (for staining cells that have undergone cell death, […], 1 μL, PBS solution) (manufactured by Invitrogen) was administered to the vitreous body. Ten minutes later, the eyeball was removed, fixed for two hours by 4% paraformaldehyde (PFA), and flat-mounted retinas were prepared.

[5] = test system: rat NMDA injury model; test: Rat NMDA injury model, fundus photography; format: in vivo, SD rats; conditions: Ac-LM-HMRG 2 mM, 2 μL to the eye
Description: SD rats were placed under general anesthesia using Nembutal. N-methyl-D-aspartic acid (NMDA) (10 mM, 2 μL) or PBS was administered to the eye. The animals were again placed under anesthesia by ketamine-xylazine mixture four hours later, and Ac-LM-HMRG (2 mM, 2 μL) was administered to the eye. The fundus was photographed by an F10 (Nidec confocal biomicroscope).
In FIGS. 5 and 6, locations indicated by an arrow show nerve cells stained by HMRG.

[6] = target: T1, calpain-1 from human erythrocytes (Homo sapiens, UniProt P07384); test: In vitro enzyme assay using calpain (calpain 1); format: biochemical; conditions: probe 1 μM, 50 mM Tris buffer pH 7.4, 5 μM CaCl2, 25° C., excitation 495 nm, fluorescence 524 nm
T1 construct: calpain-1 from human erythrocytes; purchased 208713; host or cells: purified from human erythrocytes
T1 sequence (P07384 1-714): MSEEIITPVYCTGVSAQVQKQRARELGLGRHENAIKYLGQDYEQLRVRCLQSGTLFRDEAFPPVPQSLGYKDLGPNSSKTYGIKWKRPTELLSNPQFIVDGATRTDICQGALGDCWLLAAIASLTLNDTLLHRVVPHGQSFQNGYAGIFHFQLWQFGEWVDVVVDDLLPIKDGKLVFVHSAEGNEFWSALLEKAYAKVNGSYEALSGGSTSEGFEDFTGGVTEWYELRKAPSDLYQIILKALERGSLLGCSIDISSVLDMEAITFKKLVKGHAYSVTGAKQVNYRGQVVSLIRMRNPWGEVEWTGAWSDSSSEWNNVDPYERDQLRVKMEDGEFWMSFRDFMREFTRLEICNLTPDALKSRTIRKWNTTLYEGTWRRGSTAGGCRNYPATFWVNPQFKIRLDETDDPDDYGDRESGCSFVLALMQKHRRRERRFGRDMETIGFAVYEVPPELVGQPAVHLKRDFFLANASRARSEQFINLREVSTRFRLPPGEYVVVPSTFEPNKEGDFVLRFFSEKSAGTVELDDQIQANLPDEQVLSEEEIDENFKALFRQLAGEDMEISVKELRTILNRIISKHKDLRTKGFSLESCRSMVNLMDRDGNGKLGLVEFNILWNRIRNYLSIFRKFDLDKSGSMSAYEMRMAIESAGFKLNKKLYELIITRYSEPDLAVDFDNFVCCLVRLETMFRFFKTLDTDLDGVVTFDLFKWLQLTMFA
T1 sequence (P04632 1-268 partner): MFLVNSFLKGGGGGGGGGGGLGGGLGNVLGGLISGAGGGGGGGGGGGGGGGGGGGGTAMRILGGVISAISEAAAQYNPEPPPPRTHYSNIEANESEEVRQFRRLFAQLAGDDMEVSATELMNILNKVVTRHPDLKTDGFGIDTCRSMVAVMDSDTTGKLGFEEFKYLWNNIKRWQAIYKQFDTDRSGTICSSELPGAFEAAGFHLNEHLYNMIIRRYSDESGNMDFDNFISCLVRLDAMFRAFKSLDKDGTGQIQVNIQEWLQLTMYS
Description: as §1, §2, §3, §4

Row | Structure (SMILES) | effect of inhibitor on fluorescence intensity within the cells ([1]; for one hour at 37° C., then 10 KM of Ac-LM-HMRG for 30 minutes) | Absmax [2] [nm] | Emmax [2] [nm] | Φn [2] | increase of absorption and fluorescence intensity due to the enzymatic reaction [3] | staining of flat-mounted retina, NMDA group ([4]; NMDA group mice) | staining of flat-mounted retina, PBS group ([4]; PBS group mice) | staining of nerve cells in fundus photograph, NMDA group ([5]; NMDA-administered rats, 30, 60, and 90 minutes after administration) | staining of nerve cells in fundus photograph, PBS group ([5]; PBS-administered rats, after 30, 60 and 90 minutes) | visualization of calpain activity in HeLa cells (fluorescence image) [1] | increase of absorption and fluorescence intensity due to the enzymatic reaction [6]
1 | CCCC[C@@H](C=O)NC(=O)[C@H](CC(C)C)NC(=O)[C@H](CC(C)C)NC(C)=O [ALLN, reference compound] (Ac-Leu-Leu-[Nle]-aldehyde) | decreased the fluorescence intensity within the cells |  |  |  |  |  |  |  |  |  | 
2 | N=c1ccc2c(-c3ccccc3CO)c3ccc(N)cc3oc-2c1 [HMRG, reference compound] |  | 501 | 524 | 0.81 |  |  |  |  |  |  | 
3 | CC(=O)N[C@@H](CC(C)C)C(=O)N[C@@H](CC(C)C)C(=O)N[C@@H](Cc1ccc(O)cc1)C(=O)Nc1ccc2c(c1)Oc1cc(N)ccc1C21OCc2ccccc21 (stereo partly shown) [Ac-LM-HMRG] |  | 470 | 529 | 0.32 | about four-fold | calpain activity was detected | not found | nerve cells were clearly stained | nerve cells were only very slightly stained | made it possible to monitor the calpain activity inside HeLa cells | 
4 | CSCC[C@H](NC(=O)[C@H](CC(C)C)NC(C)=O)C(=O)Nc1ccc2c(c1)Oc1cc(N)ccc1C21OCc2ccccc21 (stereo partly shown) [Ac-LLY-HMRG] |  | 470 | 526 | 0.19 | about two-fold |  |  |  |  | made it possible to monitor the calpain activity inside HeLa cells | about two-fold
